The target in this assay is T1, MMS19_C819 (Homo sapiens, UniProt Q96T76).
T1 construct: endogenous in cells; host or cells: 22Rv1
T1 sequence (Q96T76 1-1030): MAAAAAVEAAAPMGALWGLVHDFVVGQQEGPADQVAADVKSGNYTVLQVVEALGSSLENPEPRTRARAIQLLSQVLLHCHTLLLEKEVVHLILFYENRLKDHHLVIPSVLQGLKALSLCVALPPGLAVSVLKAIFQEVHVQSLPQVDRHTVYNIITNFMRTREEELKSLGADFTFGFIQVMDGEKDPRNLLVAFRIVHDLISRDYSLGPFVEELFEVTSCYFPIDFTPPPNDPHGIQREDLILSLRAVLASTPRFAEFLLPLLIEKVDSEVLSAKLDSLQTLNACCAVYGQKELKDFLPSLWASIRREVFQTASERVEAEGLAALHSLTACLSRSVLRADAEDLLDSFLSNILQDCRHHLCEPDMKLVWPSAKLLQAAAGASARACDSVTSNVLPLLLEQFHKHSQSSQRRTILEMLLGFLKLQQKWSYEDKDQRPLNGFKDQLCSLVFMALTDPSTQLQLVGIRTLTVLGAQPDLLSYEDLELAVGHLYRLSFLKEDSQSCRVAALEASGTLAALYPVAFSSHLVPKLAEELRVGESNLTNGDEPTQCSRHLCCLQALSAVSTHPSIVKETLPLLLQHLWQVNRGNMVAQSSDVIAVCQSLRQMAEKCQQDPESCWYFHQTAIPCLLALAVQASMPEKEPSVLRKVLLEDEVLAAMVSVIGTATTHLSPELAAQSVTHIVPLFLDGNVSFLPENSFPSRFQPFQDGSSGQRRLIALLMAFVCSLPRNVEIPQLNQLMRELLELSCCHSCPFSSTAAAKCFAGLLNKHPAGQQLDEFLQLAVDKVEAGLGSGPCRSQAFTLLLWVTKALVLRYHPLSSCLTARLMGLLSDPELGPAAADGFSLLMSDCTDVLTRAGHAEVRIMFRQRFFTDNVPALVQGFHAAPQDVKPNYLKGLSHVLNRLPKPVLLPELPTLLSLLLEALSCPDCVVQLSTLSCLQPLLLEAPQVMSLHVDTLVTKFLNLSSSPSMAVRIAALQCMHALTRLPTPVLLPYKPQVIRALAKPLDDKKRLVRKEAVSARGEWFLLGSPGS
The assay can be described thus: IA-DTB cysteine engagement. The assay is classed as binding. Particulars: 22Rv1 cells, 20 μM probe, 1 h, relative to DMSO. A digest of the protocol:
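Competitive chemoproteomics: residual cysteine reactivity toward IA-DTB in lysates from probe-treated cells was quantified by TMT reporter ions relative to DMSO-treated controls. Replicates sharing cell line, probe, concentration and duration were averaged.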

Consider `C=CC(=O)N1C[C@H](c2ccc(Br)cc2)[C@H]1C(=O)Nc1cccc2cccnc12` [MY-3A, (2S,3S)-1-acryloyl-3-(4-bromophenyl)-N-(quinolin-8-yl)azetidine-2-carboxamide], for which the “% engagement MMS19_C819” value is given as −10%.

Regarding `C=CC(=O)N1C[C@@H](c2ccc(Br)cc2)[C@H]1C(=O)Nc1cccc2cccnc12` [MY-1A, (2S,3R)-1-acryloyl-3-(4-bromophenyl)-N-(quinolin-8-yl)azetidine-2-carboxamide], the “% engagement MMS19_C819” value came to 1.5%. The same measure for `C=CC(=O)N1C[C@H](c2ccc(Br)cc2)[C@@H]1C(=O)Nc1cccc2cccnc12` [MY-1B, (2R,3S)-1-acryloyl-3-(4-bromophenyl)-N-(quinolin-8-yl)azetidine-2-carboxamide]: 90%; for `C=CC(=O)N1C[C@H](c2ccc(Br)cc2)[C@H]1C(=O)Nc1cccc2cccnc12` [MY-3B, (2S,3S)-1-acryloyl-3-(4-bromophenyl)-N-(quinolin-8-yl)azetidine-2-carboxamide]: 11%.

(Values after patent US20250034216A1, “STEREOSELECTIVE COVALENT LIGANDS FOR ONCOGENIC AND IMMUNOLOGICAL PROTEINS” (The Scripps Research Institute, priority 2021, published 2025).)
